Measured values: patent US20100075907A1, “NEUROMEDIN U RECEPTOR AGONISTS AND USES THEREOF” (priority 2006, published 2010)
Non-standard residues stand in square brackets, D forms with d. Residues, ends and D or L forms follow the SMILES beside them. *: point of attachment. X1 = CC(C)CCC[C@@H](C)[C@H]1CC[C@H]2[C@@H]3CC=C4C[C@@H](OC(=O)C*)CC[C@]4(C)[C@H]3CC[C@]12C; Succinimide(1-Et,3-yl) = CCN1C(=O)CC(*)C1=O

Tests used:
rat NMUR1-ATG = biological target: T1, rat NMUR1-ATG (Rattus norvegicus, UniProt Q9JJI5); assay: 125I-hNMU-25 binding assay, rat R1-ATG; parameters: expressed in transfected cells; host or cells: HEK-293 FLP-In cells (pcDNA5); settings: for IC50: binding
T1 sequence (Q9JJI5 1-425): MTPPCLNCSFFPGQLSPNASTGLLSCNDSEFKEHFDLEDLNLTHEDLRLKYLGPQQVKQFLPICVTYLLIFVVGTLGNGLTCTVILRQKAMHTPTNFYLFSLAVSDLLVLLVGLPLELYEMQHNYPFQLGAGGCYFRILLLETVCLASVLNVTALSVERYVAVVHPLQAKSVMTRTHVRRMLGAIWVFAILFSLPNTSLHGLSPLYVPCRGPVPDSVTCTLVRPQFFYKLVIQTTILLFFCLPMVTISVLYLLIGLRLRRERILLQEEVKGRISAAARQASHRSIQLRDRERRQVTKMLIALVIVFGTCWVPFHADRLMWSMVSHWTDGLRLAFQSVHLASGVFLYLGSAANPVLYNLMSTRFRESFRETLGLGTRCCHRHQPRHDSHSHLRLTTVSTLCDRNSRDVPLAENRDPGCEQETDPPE
Procedure: (§1) Confluent cell monolayers expressing NMU receptors (the HEK cells described above) were harvested with phosphate buffered saline, collected by centrifugation, and resuspended in membrane buffer (50 mM TrisCl pH 7.4, 5 mM MgCl2, 1× Protease Inhibitor Cocktail, 10 μM phosphoramidon). After the cell pellet was homogenized, the solution was centrifuged at 18,000 rpm for 20 minutes at 4° C. The pellet was resuspended in membrane buffer to yield a final concentration of 0.5-5 μg/μL of membrane and stored at −80° C.
(§2) Experiments were performed in assay buffer (25 mM TrisCl, pH 7.4, 10 mM MgCl2, 2 mM EDTA, 1× Protease Inhibitor Cocktail, 100 μg/mL Bacitricin, 10 μM phosphoramidon) in 200 μL volumes in a 96-well format using 2-5 μg of membrane and 0.1 nM ^125I-hNMU-25 (about 12,000 cpm/well). For non-specific binding, 1 μM hNMU-25 was added. About 5 μL of peptides were added to measure antagonist activity, and the entire reaction was incubated at room temperature with shaking for 80 minutes. The reaction was terminated by rapid filtration through 0.3% poly-ethylenimine presoaked Millipore 96-well filter plates and washed with ice-cold buffer (5 mM TrisCl pH 7.4, 10 mM MgCl2, 2.5 mM EDTA, 0.04% Triton X-100). Plates were air-dried overnight at room temperature and recovered radioactivity was determined by standard scintillation counting. IC50 values were determined using GraphPad Prism software.
(§3) Concentration-response curves and radioligand-binding data were fitted using Prism (GraphPad Software). Results are summarized below in Tables 8 and 9.

diet-induced obese mice = assay: Feeding study in diet-induced obese mice (food intake, body weight); format: in vivo; settings: for % Food intake (FI) reductions Day 1: Day 1, based on vehicle responses; for % Food intake (FI) reductions Day 2: Day 2, based on vehicle responses; for % Food intake (FI) reductions Day 3: Day 3, based on vehicle responses
Excerpt: NMUR1 knockout (Nmur1−/−) mice were generated using standard homologous recombination techniques. Nmur1 mice were subsequently transferred to Taconic Farms where they were either maintained on a 75% C57BL/6×25% 129S6/SvEv mixed genetic background or backcrossed six generations to C57BL/6. NMUR2 knockout (Nmur2−/−) mice were licensed from Deltagen Inc., San Mateo, Calif. and subsequently transferred to Taconic Farms where they were either maintained on a 75% C57BL/6×25% 129/OlaHsd mixed genetic background or backcrossed for seven generations to C57BL/6. NMUR1 and NMUR2 double knockout (Nmur1&2−/−) mice were generated by crossing N6 Nmur1−/− mice to N7 Nmur2−/− mice. Mice were individually housed in Tecniplast cages in a conventional SPF facility. Mice were initially maintained on a regular chow diet and then early in their life were switched to a high fat diet (D12492: 60% kcal from fat; Research Diets, Inc., New Brunswick, N.J.) with ad libitum access to water in a 12-hour light/12-hour dark cycle.
Ad libitum fed male diet-induced obese mice were weighed and dosed either i.p. or s.c. about 30 minutes prior to the onset of the dark phase of the light cycle and provided with a preweighed aliquot of high fat diet D12492 which was then weighed 2 hours and 18 hours (day 1), 42 hours (day 2), 66 hours (day 3), and 90 hours (day 4) after the onset of the initial dark phase. Mice were weighed at the 18, 42, 66 and 90 hour time points.

rat NMUR2 = rat NMUR2 (Rattus norvegicus, UniProt Q9ESQ4); assay: 125I-hNMU-25 binding assay, rat R2; parameters: expressed in transfected cells; host or cells: HEK-293 FLP-In cells (pcDNA5); settings: for IC50: binding
Chain of rat NMUR2 (Q9ESQ4 whole entry): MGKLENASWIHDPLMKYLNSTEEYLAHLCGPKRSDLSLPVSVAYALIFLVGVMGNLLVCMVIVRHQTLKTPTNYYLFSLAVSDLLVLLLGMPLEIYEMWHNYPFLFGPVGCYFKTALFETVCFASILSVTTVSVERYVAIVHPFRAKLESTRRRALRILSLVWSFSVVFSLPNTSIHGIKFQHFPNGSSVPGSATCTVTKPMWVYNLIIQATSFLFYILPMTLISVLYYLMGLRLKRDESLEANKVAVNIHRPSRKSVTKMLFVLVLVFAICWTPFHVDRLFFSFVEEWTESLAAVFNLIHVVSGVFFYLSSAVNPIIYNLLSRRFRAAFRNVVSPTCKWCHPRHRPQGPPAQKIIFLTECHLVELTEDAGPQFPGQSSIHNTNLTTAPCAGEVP
Procedure: as §1, §2, §3

hNMUR2 = hNMUR2 (Homo sapiens, UniProt Q9GZQ4); assay: FLIPR calcium mobilization assay, human NMUR2; format: cell-based; parameters: expressed in transfected cells; host or cells: FLP-In CHO or HEK-293 FLP-In cells (pcDNA5); HEK-293/aeq17 lines (pcDNA3.1) were also made; settings: functional data, human R2
Chain of hNMUR2 (Q9GZQ4 whole entry): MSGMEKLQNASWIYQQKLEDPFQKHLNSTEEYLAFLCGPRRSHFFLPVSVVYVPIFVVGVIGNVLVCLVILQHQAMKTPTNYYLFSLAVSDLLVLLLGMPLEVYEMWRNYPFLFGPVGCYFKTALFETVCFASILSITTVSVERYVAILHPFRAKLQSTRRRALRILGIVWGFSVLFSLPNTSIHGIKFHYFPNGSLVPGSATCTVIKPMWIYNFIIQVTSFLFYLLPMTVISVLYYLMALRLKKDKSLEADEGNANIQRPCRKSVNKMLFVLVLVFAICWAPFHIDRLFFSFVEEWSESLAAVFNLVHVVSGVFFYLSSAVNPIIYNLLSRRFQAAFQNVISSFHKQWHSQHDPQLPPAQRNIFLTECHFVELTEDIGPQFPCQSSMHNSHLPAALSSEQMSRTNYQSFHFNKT

mouse NMUR2 = mouse NMUR2 (Mus musculus, UniProt Q8BZ39); assay: 125I-hNMU-25 binding assay, mouse R2; parameters: expressed in transfected cells; host or cells: HEK-293 FLP-In cells (pcDNA5); settings: for IC50: binding
Chain of mouse NMUR2 (Q8BZ39 whole entry): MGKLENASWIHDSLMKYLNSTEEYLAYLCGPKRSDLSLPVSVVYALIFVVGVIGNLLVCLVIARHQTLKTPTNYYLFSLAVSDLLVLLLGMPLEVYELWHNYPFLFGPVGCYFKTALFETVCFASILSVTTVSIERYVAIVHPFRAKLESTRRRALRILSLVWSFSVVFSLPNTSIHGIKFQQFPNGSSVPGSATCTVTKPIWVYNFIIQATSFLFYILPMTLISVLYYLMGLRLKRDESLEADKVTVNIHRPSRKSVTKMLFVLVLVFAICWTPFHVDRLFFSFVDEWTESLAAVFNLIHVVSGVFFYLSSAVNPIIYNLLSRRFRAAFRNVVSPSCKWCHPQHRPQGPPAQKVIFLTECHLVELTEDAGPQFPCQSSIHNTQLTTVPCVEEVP
Procedure: as §1, §2, §3

rat NMUR1-TTG = biological target: T2, rat NMUR1-TTG (Rattus norvegicus, UniProt Q9JJI5); assay: 125I-hNMU-25 binding assay, rat R1-TTG; parameters: expressed in transfected cells; host or cells: HEK-293 FLP-In cells (pcDNA5); settings: for IC50: binding
T2 sequence (Q9JJI5 1-425): T1 sequence (Q9JJI5 1-425)
Procedure: as §1, §2, §3

[1] = acute peripheral administration, wild-type mice

Row | Molecule | Body weight (BW) change (in grams) {relative to vehicle} Day 1 (diet-induced obese mice; 10 mg/kg) [grams] | % Food intake (FI) reductions Day 1 (diet-induced obese mice; 10 mg/kg) [%] | IC50 (rat NMUR2) [nM] | IC50 (hNMUR2) [nM] | IC50 (mouse NMUR2) [nM] | Body weight (BW) change (in grams) {relative to vehicle} Day 1 (diet-induced obese mice; 3 mg/kg) [grams] | % Food intake (FI) reductions Day 1 (diet-induced obese mice; 3 mg/kg) [%] | extension of serum half-life by PEGylation (diet-induced obese mice) | further results
1 | H-FRVDEEFQSPFASQSRGYFLFRPRN-NH2 [hNMU-25, reference compound] | −0.6 | 21 | 0.6 | 0.8 | 0.2 | – | – | – | IC50 (rat NMUR1-ATG): 1.2 nM; IC50 (rat NMUR1-TTG): 0.2 nM
2 | H-FRVDEEFQSPFASQSRPYFLFRPRN-NH2 [NMU4] | – | – | – | – | – | −0.3 | 12 | – | –
3 | Ac-C2FRVDEEFQSPFASQSRGYFLFRPRN-CONH2 [NMU9] ({Ac-C(PEG 40 kDa)}-FRVDEEFQSPFASQSRGYFLFRPRN-NH2) [C2 = Cys(PEG)240 kDa from Nektar (mPEG2-MAL-40 k)] | −2.0 | 56 | – | – | – | – | – | three days | Body weight (BW) change (in grams) {relative to vehicle} Day 2 (diet-induced obese mice; 10 mg/kg): −1.2 grams; % Food intake (FI) reductions Day 2 (diet-induced obese mice; 10 mg/kg): 57%; Body weight (BW) change (in grams) {relative to vehicle} Day 3 (diet-induced obese mice; 10 mg/kg): −0.2 grams; % Food intake (FI) reductions Day 3 (diet-induced obese mice; 10 mg/kg): 18%
4 | Ac-FRVDEEFQSPFASQSRPYFLFRPRN-NH2 [NMU5] | – | – | – | – | – | −0.5 | 26 | – | –
5 | CC(C)C[C@@H](NC(=O)[C@H](Cc1ccccc1)NC(=O)[C@H](Cc1ccc(O)cc1)NC(=O)CNC(=O)[C@H](CCCNC(=N)N)NC(=O)[C@H](CO)NC(=O)[C@H](CCC(N)=O)NC(=O)[C@H](CO)NC(=O)[C@H](C)NC(=O)[C@H](Cc1ccccc1)NC(=O)[C@@H]1CCCN1C(=O)[C@H](CO)NC(=O)[C@H](CCC(N)=O)NC(=O)[C@H](Cc1ccccc1)NC(=O)[C@H](CCC(=O)O)NC(=O)[C@H](CCC(=O)O)NC(=O)[C@H](CC(=O)O)NC(=O)[C@@H](NC(=O)[C@H](CCCNC(=N)N)NC(=O)[C@@H](N)Cc1ccccc1)C(C)C)C(=O)N[C@@H](Cc1c[nH]c2ccccc12)C(=O)N[C@@H](CCCNC(=N)N)C(=O)N1CCC[C@H]1C(=O)N[C@@H](CCCNC(=N)N)C(=O)N[C@@H](CC(N)=O)C(N)=O [Agonist H] (H-FRVDEEFQSPFASQSRGYF[dL]WRPRN-NH2; N-terminus assumed) | – | – | > 1000 | > 1000 | > 1000 | – | – | – | % inhibition of NMU-25 binding (rat NMUR1-ATG): 100%; IC50 (rat NMUR1-ATG): 15.9 nM; food intake (diet-induced obese mice; [1]): significantly reduced food intake; food intake (diet-induced obese mice; ip 3.25 mmoles/kg, diet-induced obese Nmur1+/+ and Nmur1−/− mice, about 2 and 18 hours): reduces food intake; % inhibition of NMU-25 binding (rat NMUR2): 0%; % inhibition of NMU-25 binding (mouse NMUR2): 20%; % inhibition of NMU-25 binding (rat NMUR1-TTG): 100%; IC50 (rat NMUR1-TTG): 11 nM
6 | CCN1C(=O)CC(SC[C@H](NC(C)=O)C(=O)N[C@@H](Cc2ccccc2)C(=O)N[C@@H](CCCNC(=N)N)C(=O)N[C@H](C(=O)N[C@@H](CC(=O)O)C(=O)N[C@@H](CCC(=O)O)C(=O)N[C@@H](CCC(=O)O)C(=O)N[C@@H](Cc2ccccc2)C(=O)N[C@@H](CCC(N)=O)C(=O)N[C@@H](CO)C(=O)N2CCC[C@H]2C(=O)N[C@@H](Cc2ccccc2)C(=O)N[C@@H](C)C(=O)N[C@@H](CO)C(=O)N[C@@H](CCC(N)=O)C(=O)N[C@@H](CO)C(=O)N[C@@H](CCCNC(=N)N)C(=O)NCC(=O)N[C@@H](Cc2ccc(O)cc2)C(=O)N[C@@H](Cc2ccccc2)C(=O)N[C@H](C)C(=O)N[C@@H](Cc2c[nH]c3ccccc23)C(=O)N[C@@H](CCCNC(=N)N)C(=O)N2CCC[C@H]2C(=O)N[C@@H](CCCNC(=N)N)C(=O)N[C@@H](CC(N)=O)C(N)=O)C(C)C)C1=O (some centres unmarked) [NMU13] (Ac-C(Succinimide(1-Et,3-yl))FRVDEEFQSPFASQSRGYF[dA]WRPRN-NH2) | – | – | > 1000 | > 1000 | > 1000 | – | – | – | % inhibition of NMU-25 binding (rat NMUR1-ATG): 100%; food intake (diet-induced obese mice; [1]): significantly reduced food intake; % inhibition of NMU-25 binding (rat NMUR2): 0%; % inhibition of NMU-25 binding (mouse NMUR2): 30%; % inhibition of NMU-25 binding (rat NMUR1-TTG): 100%
7 | Ac-FRVDEEFQSPFASQSRGYFLFRPRN-NH2 [NMU2] | – | – | – | – | – | −0.7 | 25 | – | –
8 | CC(=O)N[C@@H](CSCC(=O)O[C@H]1CC[C@@]2(C)C(=CC[C@H]3[C@@H]4CC[C@H]([C@H](C)CCCC(C)C)[C@@]4(C)CC[C@@H]32)C1)C(=O)NCC(=O)N[C@@H](Cc1ccc(O)cc1)C(=O)N[C@@H](Cc1ccccc1)C(=O)N[C@@H](CC(C)C)C(=O)N[C@@H](Cc1ccccc1)C(=O)N[C@@H](CCCNC(=N)N)C(=O)N1CCC[C@H]1C(=O)N[C@@H](CCCNC(=N)N)C(=O)N[C@@H](CC(N)=O)C(N)=O [NMU11] (Ac-C(X1)GYFLFRPRN-NH2) | – | – | – | – | – | – | – | two days | –
9 | Ac-C2FQSPFASQSRGYFLFRPRN-CONH2 ({Ac-C(PEG 40 kDa)}-FQSPFASQSRGYFLFRPRN-NH2; not fully specified; printed as Ac-C2FQSPFASQSRGYFLFRPRN-CONH2) [NMU20, C2 = Cys(PEG)240 kDa] | −2.2 | 67 | – | – | – | – | – | three days | Body weight (BW) change (in grams) {relative to vehicle} Day 2 (diet-induced obese mice; 10 mg/kg): −1.1 grams; % Food intake (FI) reductions Day 2 (diet-induced obese mice; 10 mg/kg): 65%; Body weight (BW) change (in grams) {relative to vehicle} Day 3 (diet-induced obese mice; 10 mg/kg): +0.3 grams; % Food intake (FI) reductions Day 3 (diet-induced obese mice; 10 mg/kg): 23%
